Laboratory results published in patent US20050106258A1, “Pharmacology and manufacturing method of Bombyx moriL related bioproduct” (priority 2003, published 2005).
Structures can show the parent of a compound that is named as a salt.

Key:
normal males [1] = assay: Blood pressure of normal males; type: in vivo; details: for Systolic Pressure, change 1 h after administration, X ± SD: P < 0.01
Text: (§1) Subjects: 46 normal males, age 23-29, provided.
(§2) Methods: Double-blind, auto-control and mutual control design. The influence of the two medicines on arterial blood flow rate of cavernosum was contrasted, Based on ages, the objects were randonmly divided into 4 groups, and there were 11-12 people in one group. Before administration, arterial blood flow of corpus cavernosum penis was estimated respectively by Doppler color ultrasound instrument (Acuson, American, 128×p/10 c),and blood pressure was also measured. Then 2 groups were respectively given high dosage Medicine, that is, 8 capsules product mainly consisting of bombyx moriL and 8 capsules of viagra, and the dose-effect relationship was observed. Blood pressure and cavernous arterial blood flow of every group were estimated respectively at I and 2 hours after administration, and the time-effect relationship of product mainly consisting of bombyx moriL and viagra was observed. Whether the alternation before and after administration and the difference between groups were significant was convinced here.

[2] = test system: 5′ Nucleotide Phosphodiesterase isoenzyme (isoenzyme V) in corpus cavernosum tissue; assay: 5′ Nucleotide Phosphodiesterase isoenzyme bands in rat corpus cavernosum tissue after oral dosing (polyacrylamide gel electrophoresis, laser scanning); type: in vivo, rats; details: P < 0.05 vs blank comparison (0.495 ± 0.328)
Experimental: Take 50 healthy male rats with body weight of 230±10.4 g, divide them into five groups at random, with 10 rats each group.
(1) The product mainly consisting of bombyx moriL test drug group: 200mg/kg and 400mg/kg two dose groups
(2) The positive comparison drug viagra group: 6 mg/kg and 12 mg/kg two dose groups
(3) The blank comparison group: normal saline 0.4 ml/per animal
Preparation of drug: After product mainly consisting of bombyx moriL and viagra are dissolved with quanitative normal saline, then use them.
Drug feeding way: Feed medicine to all groups of animal once.
Take corpus cavernosum 10 mg, put into the tissue lapping homogenate container, add 0.05M PH7.4 phosphoric acid buffering agent liquid of 0.2 ml homogenate into the ice bath, and lastly add to 10 ml to prepare homogenate liquid with concentration of 1 mg/n ml. Centrifuge by 20 min. at temperature 4° C., 3000 r/min, then take the supernatant liquid for use.
(1) Take 5′ Nucleotide Phosphodiesterase in the amount enough to dissolve phosphoric acid dieter bond by water, under the effecting of the bottom substance of 5′-[5-iodine indoxyl-(3)] thymidine acid ammonium salt, get iodine sub-indoxyl, it can be oxidized in air and generating violet 5.5′,by using -diuodoindigo principle to examine enzyme activity. […]

cGMP [3] = assay: cGMP content in rat cavernous body (125I-cGMP RIA); type: in vivo, rats; details: 1.5 hours after administration
Experimental: (§3) According to the aim of the experiment, IRA was performed to estimate cGMP content in plasma and cavernous boby of 50 male rats which were administrated by 2 dosages of […] product mainly consisting of bombyx moriL in our ladoratory. Change caused by […] product mainly consisting of bombyx moriL at 1.5 hours after administration was wholly observed. I. Rats: 50 healthy rats were randomly divided into 5 groups, every group is 10 rats 1. Product Mainly Consisting of Bombyx moriL Group: there were two dosage group 200 mg/kg, 400 mg/kg. 2. Viagra Group: two group, 6 mg/kg, 12 mg/kg. 3. Control Group: NS, 0.4 ML/rat. Medicine Dispensing: Viagra and Product Mainly Consisting of Bombyx moriL was dissolved by certain mount of NS. Administration Method: All Group was e.g. for One Time. […] Our laboratory used 125I-cGMP-RIA kit by Isotope Laboratory, detecting Method was double antiboby radioimmune method. The experiment sensitivity is 0.008 pmol/ml, most combination rate of detection is 82.7%,non […] combination rate is 5.0%.

cGMP [4] = assay: cGMP content in rat plasma (125I-cGMP RIA); type: in vivo, rats; details: 1.5 hours after administration, P < 0.001 vs control (2.59 ± 0.48)
Experimental: as §3, with “Time. Anticoagulant 50 u l EDTA was added into blood test tube.lml blood was taken in rat's veniplex orbita posterior. Test tubes was stood in ice-water mixture and were centrifugated 200 rpm for 10 minutes.” for “Time.”

normal males [5] = assay: Arterial blood flow rate of corpus cavernosum penis of normal males (Doppler color ultrasound); type: in vivo; details: for MAX blood flow rate, change 1 h after administration, X ± SD: P < 0.001; for increasement of MAX (cavernous arterial maximal blood flow rate): 1 hour after administration vs before
Text: AIM: The physiological mechanism of penile erection expresses that NO is excreted in the cavernosum during sexual extraction, whose direct function is to activate GC, which catalyzes GPT to cGMP, so the smooth muscle of cavernosum is relax, and the inflowed blood volume is increased, then penis is erected. In this experiment, Doppler color-ultrasound instrument was used to observe the influence of product mainly consisting of bombyx moriL and viagra on the arterial blood flow rate of corpus cavernosum penis of normal males, to estimate the alternation of inflowed blood volume of cavernosum.
Tested Medicie: No.981005, light-blue capsule, 200 mg/capsule.
Sildenafilcitrate, viagra: light-blue rhombic table, 100 mg/tablet. The tablet was triturated to fine powder, and amylum was added. After adequate mixture, the powder was filled into 200 mg capsule. (The same specification as product mainly consisting of bombyx moriL).There was 50 mg sildenafilcitrate in every 8 capsules.
as §1, §2

nitric oxide (NO) = assay: Nitric oxide contents in the corpora cavernosa of penis in male rats (nitrate reductase method); type: in vivo
Text: It has been approved in literatures that nitric oxide (NO) is formed in the endothelial cells in blood vessels and NO plays as an important signal transmitter in many physical activities of the human body. Nitric Oxide exists in many organs and tissues such as brain, blood vessels, liver, lung, pancreas, immune and reproductive systems. On the basis of No on wide-ranging regulative activities in the human physiological process, the Nitric Oxide contents, in the Sera and the Corpora Cavernosa of Penis in 50 normal male rats, were measured by nitrate reductase method for two dosages of product mainly consisting of bombyx moriL and Sildenafil Citrate(Viagra).On a half and one hour after the drug administrations, the variations of NO content were compared with the two drugs treated animals as a whole situation. The results are: (1) In the rat serum of the tested drug groups, there are distinct NO content differences with statistical […] compared the No contents of the low dosage groups of the two drugs with the control group's, and there are very distinct NO content differences with statistical significance (p<0.001) in the high dosage groups of the two drugs. […]

[6] = Viagra 25 mg, n=11, before administration 81.8 ± 6.4
[7] = Viagra 25 mg, n=11, before administration 120.5 ± 10.6
[8] = Viagra 50 mg, n=12, before administration 78.6 ± 10.7
[9] = Viagra 50 mg, n=12, before administration 117.7 ± 9.8
[10] = Viagra 25 mg, n=11, before administration 1.09 ± 0.30
[11] = Viagra 25 mg, n=11, before administration 3.24 ± 1.02
[12] = Viagra 50 mg, n=12, before administration 1.25 ± 0.62
[13] = Viagra 50 mg, n=12, before administration 3.37 ± 0.79

CCCc1nn(C)c2c(=O)[nH]c(-c3cc(S(=O)(=O)N4CCN(C)CC4)ccc3OCC)nc12 [Viagra, Sildenafil citrate]
rate of hypotensive function (normal males [1]; "High dosage" as printed, remarkable only at 1 hour after administration): 8.3% | Diastolic Pressure, change 1 h after administration, X ± SD (normal males [1]; [6]): −2.7 ± 4.7 mmHg | Diastolic Pressure, change 2 h after administration, X ± SD (normal males [1]; [6]): −1.8 ± 4.6 mmHg | Systolic Pressure, change 2 h after administration, X ± SD (normal males [1]; [7]): −3.5 ± 6.2 mmHg | Systolic Pressure, change 1 h after administration, X ± SD (normal males [1]; [7]): −10.0 ± 6.3 mmHg | Diastolic Pressure, change 1 h after administration, X ± SD (normal males [1]; [8]): −3.4 ± 7.2 mmHg | Diastolic Pressure, change 2 h after administration, X ± SD (normal males [1]; [8]): −2.0 ± 6.4 mmHg | Systolic Pressure, change 2 h after administration, X ± SD (normal males [1]; [9]): −2.7 ± 5.6 mmHg | Systolic Pressure, change 1 h after administration, X ± SD (normal males [1]; [9]): −7.3 ± 6.1 mmHg | decreasing rate of systolic pressure (sp) (normal males [1]; high dosage, 1 h after administration, p<0.01): 6.2% | isoenzyme band II area under peak, Peak Area X ± SD ([2]; Viagra 6 mg/kg): 0.249 ± 0.126 | isoenzyme band II area under peak, Peak Area X ± SD ([2]; Viagra 12 mg/kg): 0.198 ± 0.092 | cGMP content in cavernous body, X ± SD (cGMP [3]; Viagra 6 mg/kg, P < 0.1 vs control (0.25 ± 0.05)): 0.40 ± 0.26 pmol/mL | cGMP content in cavernous body, X ± SD (cGMP [3]; Viagra 12 mg/kg, P < 0.001 vs control (0.25 ± 0.05)): 0.53 ± 0.12 pmol/mL | cGMP content in plasma, X ± SD (cGMP [4]; Viagra 6 mg/kg): 4.53 ± 0.67 pmol/mL | cGMP content in plasma, X ± SD (cGMP [4]; Viagra 12 mg/kg): 4.42 ± 0.97 pmol/mL | MIN blood flow rate, change 1 h after administration, X ± SD (normal males [5]; [10]): +0.27 ± 1.01 cm/s | MIN blood flow rate, change 2 h after administration, X ± SD (normal males [5]; [10]): +0.36 ± 0.81 cm/s | TAMX blood flow rate, change 2 h after administration, X ± SD (normal males [5]; Viagra 25 mg, n=11, before administration 2.64 ± 1.12): 0.18 ± 1.17 cm/s | TAMX blood flow rate, change 1 h after administration, X ± SD (normal males [5]; Viagra 25 mg, n=11, before administration 2.64 ± 1.12, P < 0.05): +1.36 ± 1.43 cm/s | PI (pulsation index), change 1 h after administration, X ± SD (normal males [5]; [11]): −0.19 ± 1.16 | PI (pulsation index), change 2 h after administration, X ± SD (normal males [5]; [11]): +0.10 ± 0.85 | MAX blood flow rate, change 1 h after administration, X ± SD (normal males [5]; Viagra 25 mg, n=11, before administration 9.55 ± 2.58): +4.36 ± 2.98 cm/s | MIN blood flow rate, change 1 h after administration, X ± SD (normal males [5]; [12]): +0.17 ± 0.72 cm/s | MIN blood flow rate, change 2 h after administration, X ± SD (normal males [5]; [12]): +0.17 ± 0.91 cm/s | TAMX blood flow rate, change 2 h after administration, X ± SD (normal males [5]; Viagra 50 mg, n=12, before administration 2.67 ± 0.78): 0.50 ± 0.80 cm/s | TAMX blood flow rate, change 1 h after administration, X ± SD (normal males [5]; Viagra 50 mg, n=12, before administration 2.67 ± 0.78, P < 0.01): +1.43 ± 1.27 cm/s | PI (pulsation index), change 1 h after administration, X ± SD (normal males [5]; [13]): +0.24 ± 0.84 | PI (pulsation index), change 2 h after administration, X ± SD (normal males [5]; [13]): −0.33 ± 0.72 | MAX blood flow rate, change 1 h after administration, X ± SD (normal males [5]; Viagra 50 mg, n=12, before administration 9.58 ± 1.08): +5.67 ± 4.31 cm/s | MAX blood flow rate, change 2 h after administration, X ± SD (normal males [5]; Viagra 50 mg, n=12, before administration 9.58 ± 1.08, P < 0.05): +1.75 ± 2.63 cm/s | increasement of MAX (cavernous arterial maximal blood flow rate) (normal males [5]; high dosage groups): 59.2% | increasing rate of TAMX (cavernous average blood flow rate) (normal males [5]; low and high dosage groups, 1 hour after administration, P<0.01): 51.5-53.6% | increasement of MAX (cavernous arterial maximal blood flow rate) (normal males [5]; low dosage groups): 46.6% | NO contents X ± SD, corpora cavernosa (nitric oxide (NO); Viagra high 12 mg/kg, P < 0.05 vs negative control (29.2 ± 5.37)): 48.52 ± 17.95 µmol/L | NO contents X ± SD, corpora cavernosa (nitric oxide (NO); Viagra low 6 mg/kg, P < 0.01 vs negative control (29.2 ± 5.37)): 44.88 ± 9.47 µmol/L
